Entries after “also recorded” stand apart in the source; their conditions may differ. Read-outs that look alike come from different tables or passages of the source.
How the values were obtained:
CYP2D6 [1] = target: T1, CYP2D6 (Homo sapiens, UniProt P10635); conditions: HLMs; cited from earlier work
rheumatoid arthritis = conditions: 500 mg daily for 8 weeks, 50 women with rheumatoid arthritis; cited from earlier work
CYP1A2 = target: T2, CYP1A2 (Homo sapiens, UniProt P05177); test: CYP1A2 fluorescence-based high throughput inhibition assay; format: in vitro ADME; conditions: graded by inhibition evaluation standards
T2 sequence (P05177 1-516): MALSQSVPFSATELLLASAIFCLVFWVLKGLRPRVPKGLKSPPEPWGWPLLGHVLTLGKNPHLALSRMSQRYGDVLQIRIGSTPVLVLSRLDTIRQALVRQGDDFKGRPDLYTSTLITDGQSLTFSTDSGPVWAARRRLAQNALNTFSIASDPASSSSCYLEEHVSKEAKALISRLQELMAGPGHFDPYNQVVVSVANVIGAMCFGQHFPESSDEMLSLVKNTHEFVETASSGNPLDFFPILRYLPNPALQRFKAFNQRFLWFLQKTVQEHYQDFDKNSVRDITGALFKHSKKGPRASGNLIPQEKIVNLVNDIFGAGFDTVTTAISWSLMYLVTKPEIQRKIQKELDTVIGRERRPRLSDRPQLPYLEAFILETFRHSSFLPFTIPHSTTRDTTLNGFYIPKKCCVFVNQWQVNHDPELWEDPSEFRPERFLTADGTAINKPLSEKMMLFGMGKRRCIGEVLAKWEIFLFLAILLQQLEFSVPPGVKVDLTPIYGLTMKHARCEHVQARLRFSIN

CYP2C19 [2] = target: T3, CYP2C19 (Homo sapiens, UniProt P33261); test: CYP2C19 fluorescence-based high throughput inhibition assay; format: in vitro ADME; conditions: graded by inhibition evaluation standards
CYP3A4 = CYP3A4 (Homo sapiens, UniProt P08684); test: CYP3A4 fluorescence-based high throughput inhibition assay; format: in vitro ADME; conditions: graded by inhibition evaluation standards
CYP2D6 [3] = target: T1, CYP2D6; test: CYP2D6 fluorescence-based high throughput inhibition assay; format: in vitro ADME; conditions: graded by inhibition evaluation standards
CYP2E1 = CYP2E1 (Homo sapiens, UniProt P05181); test: CYP2E1 inhibition, HPLC-UV assay of 6-hydroxychlorzoxazone formation; format: in vitro ADME; conditions: graded by inhibition evaluation standards
CYP2C19 [4] = target: T3, CYP2C19; conditions: HLMs; cited from earlier work
[5] = cited from earlier work
CYP3A2 = conditions: diabetic rats, single dose TQ; cited from earlier work

T3 sequence (P33261 whole entry): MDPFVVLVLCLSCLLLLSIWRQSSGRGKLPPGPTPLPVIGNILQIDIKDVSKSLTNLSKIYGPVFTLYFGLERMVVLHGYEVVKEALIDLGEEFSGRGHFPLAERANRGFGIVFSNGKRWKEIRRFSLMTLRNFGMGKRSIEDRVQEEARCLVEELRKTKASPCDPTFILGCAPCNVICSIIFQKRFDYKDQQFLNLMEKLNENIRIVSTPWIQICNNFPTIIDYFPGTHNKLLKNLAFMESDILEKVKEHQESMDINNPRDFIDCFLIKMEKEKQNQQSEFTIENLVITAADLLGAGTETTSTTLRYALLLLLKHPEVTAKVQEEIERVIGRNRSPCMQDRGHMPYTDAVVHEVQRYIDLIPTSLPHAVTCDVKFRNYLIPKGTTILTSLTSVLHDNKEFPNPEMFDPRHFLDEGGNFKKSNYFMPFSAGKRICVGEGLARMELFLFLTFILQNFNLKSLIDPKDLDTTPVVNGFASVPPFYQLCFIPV
T1 sequence (P10635 whole entry): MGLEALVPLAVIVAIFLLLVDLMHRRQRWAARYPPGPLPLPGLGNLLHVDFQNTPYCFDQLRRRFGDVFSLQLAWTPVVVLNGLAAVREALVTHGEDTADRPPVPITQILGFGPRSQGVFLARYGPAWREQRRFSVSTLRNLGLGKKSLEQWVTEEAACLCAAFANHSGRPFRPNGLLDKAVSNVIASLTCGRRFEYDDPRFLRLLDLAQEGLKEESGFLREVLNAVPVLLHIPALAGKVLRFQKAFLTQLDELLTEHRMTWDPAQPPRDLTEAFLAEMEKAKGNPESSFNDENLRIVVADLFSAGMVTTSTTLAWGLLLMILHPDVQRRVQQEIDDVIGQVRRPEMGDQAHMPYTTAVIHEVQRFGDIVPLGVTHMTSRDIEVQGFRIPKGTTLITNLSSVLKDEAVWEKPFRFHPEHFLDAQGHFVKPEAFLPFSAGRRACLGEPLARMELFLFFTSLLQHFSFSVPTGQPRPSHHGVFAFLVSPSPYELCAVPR
CYP3A4, sequence (P08684 whole entry): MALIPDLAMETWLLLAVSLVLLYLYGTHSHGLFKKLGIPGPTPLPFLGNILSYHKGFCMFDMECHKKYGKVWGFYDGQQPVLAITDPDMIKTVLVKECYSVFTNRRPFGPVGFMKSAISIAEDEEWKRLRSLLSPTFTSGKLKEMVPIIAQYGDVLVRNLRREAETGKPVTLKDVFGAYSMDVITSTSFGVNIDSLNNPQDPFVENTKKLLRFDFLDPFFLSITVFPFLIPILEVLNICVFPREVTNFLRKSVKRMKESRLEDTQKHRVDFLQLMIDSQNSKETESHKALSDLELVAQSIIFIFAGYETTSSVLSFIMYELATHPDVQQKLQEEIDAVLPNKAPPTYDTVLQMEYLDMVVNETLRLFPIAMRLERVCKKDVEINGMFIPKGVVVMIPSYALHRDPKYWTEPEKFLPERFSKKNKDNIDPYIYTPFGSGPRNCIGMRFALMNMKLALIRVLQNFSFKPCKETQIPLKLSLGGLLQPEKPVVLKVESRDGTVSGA
CYP2E1, sequence (P05181 whole entry): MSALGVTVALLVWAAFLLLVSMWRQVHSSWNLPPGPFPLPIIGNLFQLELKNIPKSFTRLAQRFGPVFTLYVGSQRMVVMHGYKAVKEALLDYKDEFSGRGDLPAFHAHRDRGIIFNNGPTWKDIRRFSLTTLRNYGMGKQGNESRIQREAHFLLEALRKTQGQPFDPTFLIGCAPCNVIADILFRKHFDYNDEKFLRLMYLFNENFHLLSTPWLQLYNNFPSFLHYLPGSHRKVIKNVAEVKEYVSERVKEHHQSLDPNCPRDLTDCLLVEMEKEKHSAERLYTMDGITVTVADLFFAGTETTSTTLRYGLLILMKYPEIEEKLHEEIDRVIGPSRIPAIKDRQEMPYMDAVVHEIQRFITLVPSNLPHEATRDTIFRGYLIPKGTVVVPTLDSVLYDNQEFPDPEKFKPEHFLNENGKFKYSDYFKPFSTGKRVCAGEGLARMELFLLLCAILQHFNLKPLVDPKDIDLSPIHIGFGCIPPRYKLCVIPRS

inhibitory effect on CYP3A4 activity (in words) (CYP3A4)	inhibitory effect on CYP2D6 activity (in words) (CYP2D6 [3])	Structure (SMILES)	inhibition of CYP2D6 (in words) (CYP2D6 [1])	clinical symptoms, disease activity, hs-TNF-α and erythrocyte sedimentation rate (rheumatoid arthritis)	inhibitory effect on CYP1A2 activity (in words) (CYP1A2)	inhibitory effect on CYP2C19 activity (in words) (CYP2C19 [2])	inhibitory effect on CYP2E1 activity (in words) (CYP2E1)	inhibition of CYP2C19 (in words) (CYP2C19 [4])	increase in t½ of glibenclamide ([5]; chronic administration of TQ) [%]	increase in AUC of glibenclamide ([5]; diabetic rats, single dose TQ) [%]	increase in t½ of glibenclamide ([5]; diabetic rats, single dose TQ) [%]	hepatic protein expressions of CYP3A2 enzymes (CYP3A2)
moderate to strong inhibitory effect	strong inhibitory effect	O=c1c(O)c(-c2ccc(O)c(O)c2)oc2cc(O)cc(O)c12 [QR, Quercetin]	moderate competitive inhibitor	significant improvements	neither QR nor TQ has any significant inhibitory effect	moderate inhibitory effect; also recorded: moderate inhibitors	neither QR nor TQ has any significant inhibitory effect	potent competitive inhibitor				
moderate to strong inhibitory effect	no inhibitory effect	CC1=CC(=O)C(C(C)C)=CC1=O [TQ, Thymoquinone]			neither QR nor TQ has any significant inhibitory effect	moderate inhibitory effect	neither QR nor TQ has any significant inhibitory effect		92	32.0	17.4	marked decrease

Reference: article PMC5822518 (Pharmacognosy Magazine, 2018)
